Data published in paper PMC6466596, “New Chloramphenicol Derivatives from the Viewpoint of Anticancer and Antimicrobial Activity” (Antibiotics, 2019).
Like-named read-outs stand apart in the source and are kept apart here.

Key:
Escherichia coli ΔTolC = experiment: In vivo antibacterial activity (growth inhibition in LB culture, OD560); type: cell-based; details: read-out: EC50 Escherichia coli ΔTolC
Description: (§1) The in vivo antibacterial activity of the conjugates was determined using the following three bacterial strains: wild-type Escherichia coli K12 (E. coli K12), Escherichia coli ΔTolC mutant strain (E. coli ΔTolC) lacking the TolC protein, which is involved in the efflux pumps operation, and wild-type Staphylococcus aureus (S. aureus). The anti-tumor activity of the conjugates was assessed using the human ZL34 and MeT5A cell lines, which were kindly offered by Professor G. Stathopoulos (University of Patras). ZL34 are cancer cells, derived from malignant pleural mesothelioma, while MeT5A are immortalized cells, which originate from healthy mesothelial tissue.
(§2) For the experimental procedures, the bacteria were cultured in luria broth (LB) medium (tryptone 10 g/L, yeast extract 5 g/L, NaCl 10 g/L) as previously described. The bacteria cultures were grown in the presence of CAM or each conjugate at increasing concentration (1–100 μM). The cultures were incubated at 37 °C until the absorbance (OD560) of the reference culture in the absence of antibiotic reached the value of 0.7. At this point, the growth of the cultures was terminated by placing them in an ice bath, and the measurement of the optical density followed. These measurements were used to calculate the half-maximal effective concentration (EC50) values.

Escherichia coli K12 = experiment: as above; type: cell-based; details: K12, read-out: EC50 Escherichia coli K12
Description: as §1, §2

Staphylococcus aureus = experiment: as above; type: cell-based; details: read-out: EC50 Staphylococcus aureus
Description: as §1, §2

E. coli 70S ribosome = experiment: Competition with [14C]-chloramphenicol for binding to the ribosome (filter binding); details: calculated from IC50 by Cheng–Prusoff; [14C]-CAM constant at 10 μM; read-out: Ki (binding affinity constant)
Description: Reassociated 70S ribosomes were prepared from E. coli K12 cells as described previously. 70S ribosomes were incubated in buffer A (100 mM Tris-HCl pH 7.2, 100 mM ammonium acetate, 10 mM magnesium acetate, 6 mM β-mercaptoethanol) with 10 μΜ [^14C]-chloramphenicol (150 dpm/pmol) at a final concentration of 0.20 μM [23]. After incubation for 10 min at 37 °C, the mixture was diluted with 3 mL of cold buffer A and filtered through a 25-mm diameter cellulose nitrate membrane filter (Millipore 0.45 μm pore size). The filter was washed three times with 3 mL of cold buffer A and the radioactivity which remained bound on the filter was measured. The binding of [^14C]-chloramphenicol was studied in competition with CAM or PA–CAM conjugates by keeping the concentration of [^14C]-CAM constant (10 μM) and increasing the concentration of non-radioactive conjugates.
To clarify whether the new PA–CAM conjugates maintain their binding site on the 70S bacterial ribosome, we carried out competition experiments. […] The affinity constants, Ki, were calculated using the following Cheng–Prusoff relationship (1) and their values are presented in Table 3. According to the values of Table 3, the decrease of the affinity for 70S ribosome follows the order 3>7>4>6>CAM>5. (1) Ki=IC50/1+[I]/KD where [I] is the concentration of [^14C]-CAM (constant at 10 μM) and KD is the dissociation constant of ribosome–chloramphenicol complex formation.

Met5A cells = experiment: Quantification of intracellular levels of conjugates and polyamines by RP-HPLC-DAD; type: cell-based, human; details: Met5A cells treated with 60 μΜ of compound; for Intracellular compound concentration: mean ± SD, three repetitions
Description: (§3) PAs and conjugates 3 and 4 in ZL34 and Met5A cells were determined by reverse phase high-performance liquid chromatography (RP-HPLC-DAD), as described previously. Briefly, 100 mg cells (wet weight), either ZL34 or Met5A, which were grown in the presence of 60 μΜ of conjugates, were washed and then homogenized in 0.6 M HClO4. Cultures grown in the absence of the conjugates were used as reference. In the isolates, hexamethylenediamine dihydrochloride was added as an internal standard, followed by dansylation and subsequent extraction by toluene. The extracts were dried, reconstituted in acetonitrile/10 mM phosphate buffer pH 4.4 (45:55 v/v) and filtered through a 0.2-μm membrane (Spartan 13/0.2 RC Whatman GmbH, Dassel, Germany) prior to HPLC analysis. The HPLC system included a Varian Star 9010 solvent delivery system with a 250 × 4.6 mm Luna 5 μm C18(2) 100 A column (Phenomenex Co., USA) and a photodiode array detector (Shimadzu SPDM20A).
(§4) The flow rate was set at 1.0 mL/min. Polyamines were quantified at 258 nm and the conjugates at 275 nm. The detection limits for PUT, SPD, and SPM were 52 pmol, 18 pmol, and 36 pmol at 258 nm, respectively. The detection limits for compounds 3 and 4 were 25 pmol and 30 pmol at 275 nm, respectively. All experiments were run in triplicate. The coefficients of variation (C.V.) of the intra-assays were 5–7%, while those of the inter-assays ranged from 13 to 17%. LC Solution Software (Shimadzu) was used for data processing and the results were expressed as nmol/mg protein.

ZL34 cells = experiment: as above; type: cell-based, human; details: ZL34 cells treated with 60 μΜ of compound; for Intracellular compound concentration: mean ± SD, three repetitions
Description: as §3, §4

[1] = test system: mitochondrial cytochrome c oxidase subunit II (COX2) in ZL34 cells; experiment: Immunoblotting of COX2 (mitochondrial protein synthesis); type: cell-based, human; details: 60 μΜ, 48 h; normalized to actin; result in words
Description: (§5) Cell lysates were prepared after treatment with 60 μΜ of conjugates for 48 h. Total cellular proteins were isolated at 4 °C using RIPA buffer (ABCAM) and mixed with 4% SDS-containing loading buffer. Protein concentrations were determined using Bradford assay. Lysates ([…]) were reduced in Laemmli buffer containing 1 mM dithiothreitol, resolved by 10% SDS-PAGE and electrotransfered to Immobilon-P PVDF membranes (Millipore, Massachusetts, USA) according to standard procedures. Blots were incubated at 4 °C overnight with rabbit monoclonal antibody against mitochondrial cytochrome c oxidase subunit II (COX2) (anti-mtCO2 antibody, ABCAM) at a 1:1000 dilution in blocking buffer. After washing with TBS-Tween and incubation with secondary antibody coupled to horse radish peroxidase, protein bands were visualized with ECL^TM chemiluminescence reagent (Amersham) and detected by autoradiography. The intensity of bands was quantified by Image Analysis, using the Image-Pro Plus 7 software (Media Cybernetics). Blots were re-probed with a mouse anti-actin antibody (Santa Cruz Biotechnology) to verify equal protein loading.

[2] = test system: mitochondrial cytochrome c oxidase subunit II (COX2) in Met5A cells; experiment: as above; type: cell-based, human; details: 60 μΜ, 48 h; compared to ZL34; result in words
Description: as §5

ZL34 mesothelioma cells = type: cell-based, human
Description: as §1
(§6) The antitumor activity of the conjugates was assessed using the human ZL34 and MeT5A cell lines as previously described. ZL34 and Met5A cells were plated in sterile 6-well microtiter plates and grown in Dulbecco’s modified Eagle’s medium (DMEM), supplemented with 10% heat-inactivated fetal bovine serum and 1% penicillin/streptomycin. Cultures were maintained in a humidified atmosphere with 5% CO2 at 37 °C. Compounds 3 and 4 were added at final concentrations of 30 and 60 μΜ, and then cells were grown for 24, 72 and 96 h. In parallel, solutions of conjugates combined with a ten-fold concentration of SPD were incubated under the same conditions. After treatment, the drug was removed by washing the cells twice with phosphate-buffered saline (PBS). The cells were then trypsinized (0.5 mL trypsin-EDTA×1 solution/well, 5 min at 37 °C), mixed with 1 mL DMEM and collected by centrifugation at 3000 × g for 5 min. Cell viabilities were determined by the trypan blue exclusion assay, using a TC10 automated cell counter (BIORAD). Viable cells were expressed as a percentage of total cells.

[3] = test system: Met5A mesothelial immortalized cells; type: cell-based, human
Description: as §1, §6

[4] = wild-type strain, mean ± SD, three independent experiments

SMILES	EC50 (Escherichia coli ΔTolC) [µM]	EC50 (Escherichia coli K12) [µM]	EC50 (Staphylococcus aureus) [µM]	Ki (E. coli 70S ribosome) [nM]	PUT intracellular level (Met5A cells) [nmol/mg Protein]	SPD intracellular level (Met5A cells) [nmol/mg Protein]	SPM intracellular level (Met5A cells) [nmol/mg Protein]	Intracellular compound concentration (Met5A cells) [μΜ]	PUT intracellular level (ZL34 cells) [nmol/mg Protein]	SPD intracellular level (ZL34 cells)	SPM intracellular level (ZL34 cells)	Intracellular compound concentration (ZL34 cells) [μΜ]	EC50 (Staphylococcus aureus; [4]) [µM]	COX2 expression in tumor cells (ZL34) [1]	COX2 levels in Met5A cells [2]	Cytotoxicity / antiproliferative activity on ZL34 cancer cells (ZL34 mesothelioma cells)	Cytotoxicity on immortalized Met5A cells [3]
O=C(N[C@H](CO)[C@H](O)c1ccc([N+](=O)[O-])cc1)C(Cl)Cl [CAM, Chloramphenicol]	2.3 ± 0.6	6.2 ± 0.5	3.4 ± 0.3	1500 ± 100	–	–	–	–	–	–	–	–	–	–	–	–	–
NCCCN(CCCCN(Cc1ccccc1)Cc1ccccc1)C(=O)CCC(=O)N[C@H](CO)[C@H](O)c1ccc([N+](=O)[O-])cc1 [Compound 3]	8.9 ± 0.7	11 ± 0.9	–	800 ± 100	7.38 ± 1.93	7.38 ± 1.85	22.50 ± 3.11	3.75 ± 0.60	1.58 ± 0.13	4.18 ± 1.87 ^1 nmol/mg Protein	2.71 ± 1.17 ^2 nmol/mg Protein	5.96 ± 0.92	6.8 ± 0.5	significant decrease	affected to a lesser extent	–	–
O=C(CCC(=O)N(CCCCN(Cc1ccccc1)Cc1ccccc1)CCCN(Cc1ccccc1)Cc1ccccc1)N[C@H](CO)[C@H](O)c1ccc([N+](=O)[O-])cc1 [Compound 4]	> 200	> 200	–	1100 ± 100	5.60 ± 1.10	8.14 ± 2.16	25.80 ± 6.57	7.40 ± 0.80	2.07 ± 0.91	5.36 ± 2.15 ^1 nmol/mg Protein	3.17 ± 1.70 ^2 nmol/mg Protein	29.00 ± 2.53	> 200	significant decrease	affected to a lesser extent	demonstrated cytotoxicity	milder action
O=C(CCC(=O)N[C@H](CO)[C@H](O)c1ccc([N+](=O)[O-])cc1)NCCCCN(Cc1ccccc1)Cc1ccccc1 [Compound 5]	> 200	> 200	–	2600 ± 300	–	–	–	–	–	–	–	–	> 200	–	–	did not show any important antiproliferative activity	–
O=C(CCC(=O)N[C@H](CO)[C@H](O)c1ccc([N+](=O)[O-])cc1)NCCCCCCN(Cc1ccccc1)Cc1ccccc1 [Compound 6]	> 200	> 200	–	1300 ± 200	–	–	–	–	–	–	–	–	> 200	–	–	did not show any important antiproliferative activity	–
O=C(CCC(=O)N[C@H](CO)[C@H](O)c1ccc([N+](=O)[O-])cc1)NCCCN(Cc1ccccc1)Cc1ccccc1 [Compound 7]	> 200	> 200	–	1000 ± 100	–	–	–	–	–	–	–	–	> 200	–	–	did not show any important antiproliferative activity	–
